Data from patent publication US7960173B2, “Cardiac conduction system cells and uses thereof” (Board of Supervisors of Louisiana State University and …, priority 2004, dated 2011).

Tested on: cGATA6-minK co-positive cells
Experiment: Whole-cell patch-clamp of hyperpolarization-activated (If) current before and after cesium chloride
Type: cell-based, murine
Conditions: 10 mM cesium chloride, n=16 cells, FIG. 3(E),(F)
Experimental: On the day prior to recording, EBs were dispersed and plated onto glass coverslips coated with 0.1% gelatin. On the following day, coverslips were transferred to a recording chamber mounted on an inverted microscope (Nikon Diaphot-TMD) and superfused with extracellular recording solution. All experiments were conducted at room temperature (22-25° C.). Whole-cell voltage-clamp and current-clamp experiments were carried out using a standard Giga-seal patch-clamp method (Hamill O P et al. Pflugers Arch 391 (1981) 85). Recording electrodes were fabricated from 1.5 mm thin-walled borosilicate glass tubes (#7052. Garner Glass, Claremont, Calif.), using a Flaming-Brown microelectrode puller (P-97, Sutter Instruments, Novato, Calif.) and heat-polished before use. […] Recordings were performed using an Axoclamp 2B patch-clamp amplifier (Axon Instruments, Union City, Calif.). Data were filtered at 2 kHz, and data were acquired using Clampex 8 software (Axon Instruments). […]
In FIG. 3 (B) cGATA6-minK cells with morphologies similar to contracting atrial myocytes display atrial-like action potential waveforms (FIG. 3D). […] (F) Current-voltage relationship for hyperpolarization-activated currents measured in cGATA6-minK co-positive cells before (triangles) and after (squares) treatment with 10 mM cesium chloride. […]

[Cl-].[Cs+] [cesium chloride]
sensitivity of hyperpolarization-activated cation current (If) to cesium: cesium-sensitive
